Measured values published in US6286513A, “Methods for treating superficial bladder carcinoma” (priority 1998, dated 2001).

Experiments:
[1] = tested on: recurrent Ta, T1 or Tis tumors; experiment: Recurrence in patients with recurrent tumors (Example 2, FIG. 12); type: in vivo; settings: for median time to recurrence / projected 5-year tumor recurrence free rate: recurrent tumors
Method: Seventy-seven patients from whom recurrent Ta, T1 or Tis tumors had been resected were treated weekly for six weeks with the high efficacy therapy as described above in example 1 and 68 patients from whom recurrent Ta, T1 or Tis tumors had been resected were treated by the customary experimental therapy as described in example 1. All patients had undergone at least one previous round of therapy, to several previous rounds of resection plus chemotherapy consisting of treatment with BCG, MMC, doxorubicin and doxorubicin and cisplatin. For example, 44 patients treated with the high efficacy treatment and 42 patients treated with the customary experimental method had at least two tumor resections. Thirty-eight patients in each of the two treatment arms fad received previous tumor resections plus at least one series of adjuvant chemotherapy. All patients were evaluated as described in example 1.

[2] = tested on: Tis tumors; experiment: Recurrence in patients with Tis tumors (Example 4); type: in vivo
Method: Ten patients from whom one or more foci of Tis had been removed were treated weekly for six weeks with the high efficacy therapy as described above in example 1 and 12 patients from whom one or more foci of Tis had been removed were treated weekly for six with the standard MMC intravesical therapy as described in example 1. […] The projected 5-year recurrence free rate is 43% for the high efficacy treatment and 19% for the standard treatment.

[3] = tested on: high grade tumors (grade III); experiment: Recurrence in patients with high grade tumors (Example 6); type: in vivo
Method: Twenty-seven patients from whom high grade tumors (i.e., grade III)had been removed were treated weekly for six weeks with the high efficacy therapy as described above in example 1 and 23 patients from whom high grade tumors had been removed were treated weekly for six weeks with the customary experimental therapy as described in example 1. All patients were evaluated as described in example 1. The median time to recurrence was not reached for patients treated by the high efficacy treatment versus 179 days for patients treated by the customary experimental treatment. The projected 5-year recurrence free value is 52% for the patients receiving the high efficacy treatment and 19% for the customary experimental treatment.

[4] = tested on: T1 tumors; experiment: Recurrence in patients with T1 tumors (Kaplan-Meier); type: in vivo
Text: The Kaplan-Meier Curve is a conventional tool used to project treatment outcome such as the % of patients who remain alive or free of disease at a certain time interval. (Martin Bland, Introduction to Medical Statistics (1994) Oxford Press). The Kaplan Meier Curve was used to compare the customary experimental therapy to the high efficacy therapy. When compared to the customary experimental therapy, the high efficacy therapy increased the percentage of all patients who are projected to remain recurrence-freefor longer than 5 years from 20 to 41%. The improvement was similar for patients with T1 tumors which were growing in the deeper bladder tissue layers (i.e. increase from 16% to 44%) and for patients with Ta tumors which were growing in the urothelial surface of the bladder (i.e. increase from 20% to 37%).

[5] = Toxicity comparison of high efficacy and customary intravesical MMC therapy (Table 1); type: in vivo, patients
[6] = tested on: superficial bladder carcinomas; settings: customary experimental MMC, weekly, 1 mg/ml in 20-40 ml, six to eight weeks; cited from earlier work
[7] = in vitro, previous results; cited from earlier work
[8] = customary experimental treatment

SMILES: COC12C(COC(N)=O)C3=C(C(=O)C(C)=C(N)C3=O)N1CC1NC12 (centres unmarked) [MMC]
- median time to recurrence ([1]; customary experimental therapy): 339 days
- projected 5-year tumor recurrence free rate ([1]; customary experimental therapy): 26%
- median time to recurrence ([1]; high efficacy therapy): 754 days
- projected 5-year tumor recurrence free rate ([1]; high efficacy therapy): 39%
- delaying and preventing tumor recurrence, vs customary therapy ([1]; high efficacy therapy, recurrent tumors despite other adjuvant therapies): more effective
- (median time to recurrence; words missing in text) [2, 8]: 106 days
- projected 5-year recurrence free rate ([2]; high efficacy treatment): 43%
- projected 5-year recurrence free rate ([2]; standard treatment): 19%
- median time to recurrence [3, 8]: 179 days
- projected 5-year recurrence free value [3, 8]: 19%
- median time to recurrence ([3]; high efficacy treatment): not reached
- projected 5-year recurrence free value ([3]; high efficacy treatment): 52%
- percentage of patients projected to remain recurrence-free for longer than 5 years ([4]; customary experimental therapy): 16%
- percentage of patients projected to remain recurrence-free for longer than 5 years ([4]; high efficacy therapy): 44%
- Allergy ([5]; Customary (n = 96)): 9 % of patients
- Any toxicity ([5]; Customary (n = 96)): 64 % of patients
- Cramp ([5]; Customary (n = 96)): 17 % of patients
- Cystitis ([5]; Customary (n = 96)): 18 % of patients
- Dermal ([5]; Customary (n = 96)): 10 % of patients
- Dysuria ([5]; Customary (n = 96)): 19 % of patients
- Fatigue ([5]; Customary (n = 96)): 20 % of patients
- Fever ([5]; Customary (n = 96)): 5 % of patients
- Hematuria ([5]; Customary (n = 96)): 24 % of patients
- Leukopenia ([5]; Customary (n = 96)): 0 % of patients
- Malaise ([5]; Customary (n = 96)): 19 % of patients
- Nausea ([5]; Customary (n = 96)): 9 % of patients
- Pain ([5]; Customary (n = 96)): 17 % of patients
- Thrombocytopenia ([5]; Customary (n = 96)): 0 % of patients
- Urgency ([5]; Customary (n = 96)): 28 % of patients
- Urinary frequency ([5]; Customary (n = 96)): 33 % of patients
- Vomiting ([5]; Customary (n = 96)): 5 % of patients
- Allergy ([5]; High efficacy (n = 104)): 13 % of patients
- Any toxicity ([5]; High efficacy (n = 104)): 72 % of patients
- Cramp ([5]; High efficacy (n = 104)): 15 % of patients
- Cystitis ([5]; High efficacy (n = 104)): 24 % of patients
- Dermal ([5]; High efficacy (n = 104)): 15 % of patients
- Dysuria ([5]; High efficacy (n = 104)): 35 % of patients
- Fatigue ([5]; High efficacy (n = 104)): 19 % of patients
- Fever ([5]; High efficacy (n = 104)): 5 % of patients
- Hematuria ([5]; High efficacy (n = 104)): 26 % of patients
- Leukopenia ([5]; High efficacy (n = 104)): 1 % of patients
- Malaise ([5]; High efficacy (n = 104)): 18 % of patients
- Nausea ([5]; High efficacy (n = 104)): 12 % of patients
- Pain ([5]; High efficacy (n = 104)): 17 % of patients
- Thrombocytopenia ([5]; High efficacy (n = 104)): 0 % of patients
- Urgency ([5]; High efficacy (n = 104)): 22 % of patients
- Urinary frequency ([5]; High efficacy (n = 104)): 26 % of patients
- Vomiting ([5]; High efficacy (n = 104)): 4 % of patients
- bone marrow toxicity ([5]; high efficacy therapy): did not exhibit any signs of bone marrow toxicity
- dysuria, frequency and severity ([5]; high efficacy therapy): higher frequency of dysuria. But this toxicity was mild and did not result in termination of treatment
- other toxicities (dysuria, cystitis, hematuria, cramps), severity ([5]; high efficacy therapy, a small number of patients): mild
- additional patients without recurrent tumor at 1 year vs transurethral resection alone [6]: 1-13%
- relative importance of drug concentration and treatment duration [7]: the drug concentration is more important than treatment duration
